# Data: patent US12565515B2, “1,2,4-oxadiazole compounds as inhibitors of CD47 signalling pathways” (AURIGENE ONCOLOGY LIMITED, priority 2018, dated 2026)
# How the values were obtained:
# [1] = system: luciferase expressing Raji cells; experiment: Luciferase based phagocytosis assay; type: cell-based; conditions: human monocyte-derived macrophages, luminescence, read-out: % normalized phagocytosis (at 10 μM)
# Protocol: (§1) DPBS (Gibco), RPMI 1640 WITH HEPES AND L-GLN-500 ML (Lonza), Recombinant Human M-CSF (R& D systems), CD47 Monoclonal Antibody (B6H12), Functional Grade antibody (Ebioscience), Mouse IgG1 kappa Isotype Control, Functional Grade (Ebioscience), Vacutainer (multiple sample luer adapter) (BD), Vacutainer (sodium heparin (NH) 158USP units, Blood collection tubes (BD), Histopaque (density—1.077 gm/ml) (SIGMA 1077), Trypan Blue solution (SIGMA-T8154), Hemacytometer (Bright line-SIGMA Z359629), Scalp vein infusion set (JMS), Cell Dissociation buffer (Gibco), 48-well sterile flat bottom plates (Corning), Luciferase expressing Raji cells (Generated in house by trasfection of luciferase gene in Raji cells) Luminometer, Hygromycin B (Invitrogen), Bright Glo luciferase assay system (Promega), 96 well plate, polystyrene, high band, white flat bottom wells (Sigma CLS3912), APC anti-mouse/human CD11b Antibody (Biolegend), H929 cells, CFSE (Ebioscience), Fetal Bovine Serum (Gibco Cat #: 10437028), Round-Bottom FACs Tubes (BD), Flowcytometer BD FACS Verse, 96 well plates, ultra-low attachment (Corning).
# In vitro phagocytosis assay was performed to evaluate the ability of test item to enhance the phagocytic activity of macrophages. Monocytes were isolated from blood of healthy donor and cultured for 6-8 days using 10% RPMI (Roswell Park Memorial Institute) media and recombinant human M-CSF to differentiate into macrophages. Media was changed every alternate day. After differentiation, adherent macrophages were collected by gentle scraping and cultured in 10% RPMI overnight at a density of 0.1 million per well in 48 well tissue culture plate. Simultaneously, luciferase expressing Raji cells were cultured in 10% RPMI media with 100 μg/mL of hygromycin B in tissue culture flask. On the day of phagocytosis, macrophages were serum starved for 2 hours. 0.4 million luciferase expressing Raji cells per well were incubated with anti human CD47 purified B6H12 or Mouse IgG1 K Isotype Control antibody or various concentrations of test item in serum free media for 30 min at 37° C. and added into respective well of the 48 well plate seeded with macrophages. After 2 hours, cells were washed twice with PBS and 100 μL of serum free RPMI was added to each well. Additionally, 50 μL Bright Glow reagent was added to each well followed by mixing of cells and incubated for 5 min in dark. Luminescence reading was taken using plate reader after transferring the content of each well to white plate. Intensity of luminescence indicated the extent of phagocytosis. Each experimental condition was carried out in duplicate.
# H929 cells = experiment: FACS based phagocytosis assay; type: cell-based; conditions: NCI-H929, human macrophages, CFSE stained H929 cells, flow cytometry, normalized to positive control B6H12
# Protocol: as §1
# Monocytes were isolated from blood of healthy donor and cultured for 6-8 days using 10% RPMI (Roswell Park Memorial Institute) media and recombinant human M-CSF to differentiate into macrophages. Media was changed every alternate day. Simultaneously, H929 cells were cultured in 10% RPMI media with 50 μg/mL of betamercaptoethanol in tissue culture flask. On the day of phagocytosis adherent macrophages were serum starved for 2 hours in RPMI media. Simultaneously H929 cells were stained with 0.3 μM CFSE stain. After washing, 0.2 million CFSE stained H929 cells were incubated with anti-human CD47 or Mouse IgG1 K Isotype Control antibody or various conc of test item in serum free media for 30 min at 37° C. After 2 hours of serum starvation macrophages were dissociated with cell dissociation buffer and collected by gentle scraping and added at conc of 0.05 million per well into respective wells of the ultra-low attachment 96 well plate seeded with H929 cells. Phagocytosis was allowed for 2 hours. After 2 hours, cells were washed with PBS and stained with 1 μL of anti-human CD11b-APC antibody prepared in 100 μL of PBS for 30 min in 4° C. in dark. Cells were further washed and fixed in 100 μL of fixation buffer until acquired by Flow cytometry. The extent of phagocytosis of H929 cells by human macrophages was measured by acquiring the samples by Flow cytometry. Samples acquired by Flow cytometry were analysed by using FlowJo software. Each experimental condition was carried out in duplicate. Cells positive for FITC (CFSE) and CD11b-APC were considered as phagocytosed macrophages. Raw data of % phagocytosis by macrophages were obtained in the form of excel sheet from FlowJo. % phagocytosis from isotype control (background phagocytosis) was subtracted from % phagocytosis of macrophages treated with compound as well as other controls to get corrected phagocytosis values. Corrected phagocytosis values of compound treated samples were normalized with phagocytosis of positive control (B6H12) using the formula: % normalized phagocytosis=[(corrected % phagocytosis of compound)/(corrected phagocytosis of B6H12)*100]
# A20 syngeneic lymphoma = experiment: Efficacy in A20 syngeneic lymphoma model; type: in vivo; conditions: for TGI (%): per orally
# Description: Female Balb/c (BALB/cAnNTac) mice (6-8 weeks-old) bred in-house were used in this efficacy study in the A20 syngeneic lymphoma model. Animals were marked individually with tail marks and kept in cages that were identified by a cage card showing the study code, date of experimentation, sex and number of animals. During the experiment, the animals were weighed daily. A20 cell line (B-cell lymphoma line derived from a spontaneous reticulum cell neoplasm found in an old BALB/cAnN mouse) was procured from ATCC. When the mean tumor volumes reached approximately 75 mm^3, the animals were randomized based on tumour volumes into four groups of twelve animals in each group. Following randomization into various treatment groups, dosing with vehicle and Compound 6 was initiated. All treatments were administered per orally at a twice daily dosing frequency using a dose of 3 mg/kg, 10 mg/Kg and 30 mg/Kg. The treatment was continued for a period of 21 days after which the overall efficacy and tolerability were evaluated based on tumor volume and body weight changes observed during the treatment period. On treatment day 21, animals from all the treatment groups were sacrificed in sequential order at 1 hour after last dose administration.
# Individual animal body weights were recorded daily before the administration of test item throughout the experimental period. […] The tumor volumes were measured in all treatment group animals thrice a week (once every 2-3 days) using a digital Vernier callipers. From an ethical viewpoint, any treatment/control group with a mean tumor weight in excess of 10% of animal body weight were humanely sacrificed. As a measure of efficacy, the % T (treatment)/C(control) and % TGI (% Tumor growth inhibition) values were calculated. Graphs and statistical analysis were performed using GraphPad Prism®, Version 7.0. For analysis of tumor volume data, statistical comparison was done on Day 21 for all groups using One-way ANOVA with Dunnett's multiple comparison test. All analyses and comparisons was evaluated at the 5% (p<0.05) level. A “p” value less than 0.05 was considered as significant.
compound,measurement,setting,value
NC(=O)CC[C@H](N)c1noc(CNC(=O)N2CCCC2C(=O)O)n1 (stereo partly shown) [Compound 6],activation at 10 µM,[1],66%
same,activation at 10 µM,H929 cells,74%
same,TGI (%),"A20 syngeneic lymphoma; 3 mg/kg (bid), 21 days, Balb/c mice",53%
same,TGI (%),"A20 syngeneic lymphoma; 10 mg/kg (bid), 21 days, Balb/c mice",64%
same,TGI (%),"A20 syngeneic lymphoma; 30 mg/kg (bid), 21 days, Balb/c mice",67%
same,"tolerability (body weight, clinical signs of toxicity)","A20 syngeneic lymphoma; 3, 10 and 30 mg/kg bid per orally, 21 days, Balb/c mice",well tolerated without any signs of body weight loss and/or clinical signs of toxicity
same,"antitumor efficacy, significance of tumor growth inhibition","A20 syngeneic lymphoma; all the tested dose levels (3, 10, 30 mg/kg bid), Day 21, one-way ANOVA",statistically significant tumor growth inhibition (TGI) at all the tested dose levels
